Where two headings read alike, the source gives them in different places.
How the values were obtained:
[1] = tested on: phagocytosis of anti-D-opsonized Rh(D+) red cells by monocytes; assay: monocyte monolayer assay (MMA), in vitro phagocytosis assay; format: cell-based, human; design: key to Phagocytic index (PI): number of phagocytosed RBCs per 100 monocytes; conditions: for Phagocytic index (PI): PI = (# of phagocytic red blood cells)/(300 monocytes) * 100; for IC50 / EC50: dose-inhibitory response; for IC50: 0.5-100 μM, read-out: IC50 for inhibition of phagocytosis; for effect on IVIg dose-response curve (cooperation/synergy with IVIg): compound added at its IC50 concentration to each IVIg concentration
Procedure: The MMA to screen compounds for their ability to inhibit phagocytosis was performed as previously described (Purohit, M. K. et al., Bioorg. Med. Chem. Lett. 2013; 23:2324-7; and Purohit, M. K. et al., Bioorg. Med. Chem. 2014; 22:2739-52.). Briefly, Mononuclear cells (PBMCs) were layered onto chamber slides and monocytes purified by adherence after 1 hr at 37° C. with 5% CO2. Drugs were solubilized in 100% DMSO and then diluted in Roswell Park Memorial Institute (RPMI) to the final concentration of 5 μM, as previously reported (8,9). Corresponding dimethyl sulfoxide (DMSO) volumes in RPMI medium were used as a control. After one hour, indicator Rh-positive red cells opsonized with anti-RhD were added to the chamber slides and then further incubated for 2 hours before fixing and counting phagocytosed red blood cells (RBCs) using phase-contrast microscopy. As a positive control for inhibition, Intravenous immunoglobulin (IVIg) was used, known to inhibit phagocytosis due to blocking of FcγRs. The phagocytosis index (PI) was determined as the number of phagocytosed RBCs in 100 monocytes. The percent inhibition of phagocytosis was determined by comparing the PI in each treated sample to the PI in the untreated sample, which was determined by normalizing the PI concentration in each treated sample (phagocytosis of opsonized RBCs with vehicle only, representing 100 percent phagocytosis.
Concentrations included 100 μM, 50 μM, 25 μM, 10 μM, 5 μM, 2.5 μM, 1 μM, and 0.5 μM.
The 80 selected pyrazole core compounds were screened using a concentration of 5 μM in the in vitro phagocytosis assay, referred to as the monocyte monolayer assay (MMA). Compounds were compared to a standard intravenous immunoglobulin (IVIg) at a concentration of 1 mg/mL.

PBMC, HEPG2, and HEK-293 [2] = assay: LDH assay at higher concentrations (up to 250 μM); format: cell-based; conditions: PBMCs, HEPG2, HEK293
Procedure: (§1) Cell lines (HepG2, liver-derived, HB-8065™; HEK293, kidney-derived cell line, CRL-1573™) were purchased from the ATCC. Both cell lines were cultured in Eagle's Minimum Essential Medium supplemented with 10% fetal calf serum.
(§2) To further determine the potential for toxicity of compounds KB-151 and KB-208, additional toxicity studies were done using higher concentrations, up to 250 μM of each compound, using LDH and MTT (FIGS. 4A-4D), and an apoptosis assay (Annexin V/PI) (FIGS. 5A-5C).

PBMC, HEPG2, and HEK-293 [3] = assay: MTT assay at higher concentrations (up to 250 μM); format: cell-based, human; conditions: PBMCs, HEPG2, HEK293
Procedure: as §1, §2

PBMC, HEPG2, and HEK-293 [4] = assay: apoptosis assay (Annexin V/PI); format: cell-based, human; conditions: 250 μM, 1 hour; PBMCs, HEPG2, HEK293
Procedure: PBMC, HEPG2, and HEK-293 cells were treated for 1 hour with the compound KB-151 or the compound KB-208 at a 250 μM concentration. 100 μM thimerosal was used as a positive control for viability (diluted in RPMI). Staining with Annexin V and PI was performed according to the manufacturer's procedure for the Annexin-V-FLUOS Staining Kit (Sigma) and samples were run through an SP6800 Spectral Cytometer.
as §2

ITP mice model = assay: anti-CD41 antibody ITP mouse model (platelet count); format: in vivo; conditions: Balb/c, day 4 after two treatment doses on days 2 and 3, 100 μM s.c. twice a day, vs CD-41 group (*P≤0.05)
Procedure: An in vivo phagocytosis inhibition assay was performed with KB-151 in a mouse model, Balb/c animals (FIG. 6A and FIG. 6B). A dose of 100 μM of KB-151 was injected to 20.5 g mice at 500 μL based on the following calculations:
A dose-escalation anti-CD41 antibody ITP mouse model was used.
(§3) The efficacy of KB-151 and KB-208 at diminishing the platelet level was assessed in three ITP mice models: C57BL/6 (FIG. 7), Balb/c (FIGS. 8A-8B), and CD1 (FIG. 9). […] The toxicity was also assessed using the Balb/c model.

[5] = 60-day toxicity in Balb/c mice (blood biochemistry, histopathology); format: in vivo; conditions: after 60 days of treatment
Procedure: as §3

[6] = tested on: attachment of antibody-opsonized RBCs to FcγRs on monocytes; assay: room temperature RBC rosette assay (binding of anti-D opsonized RBCs to monocytes); format: cell-based; conditions: 100 μM
Source text: Fluorescent dye-labelled RBCs opsonized with anti-D were used to study the mechanism of phagocytosis inhibition using a room temperature assay to look for RBC rosettes (attachment of antibody-opsonized RBCs' to FcγRs) in the presence of monocytes. IVIg was used as the positive control and no treatment as the negative control. In the negative control, monocytes bound to the RBC and initiated phagocytosis (FIGS. 11A and 11E).

[7] = tested on: FcγRI (CD64), FcγRII (CD32), and FcγRIII (CD16); assay: FcγR expression on monocytes with monoclonal antibodies; format: cell-based; conditions: monocytes untreated or treated
Procedure: Due to observing similar results as IVIG, the binding of KB-208 and KB-151 to FcγR was evaluated to determine the attachment between KB-208 or KB-151 and FcγR. Three monoclonal antibodies each specific for FcγRI (CD64), FcγRII (CD32), and FcγRIII (CD16) were used to test the resulting expression of FcγRI, FcγRII and FcγRIII.

HSP27 = assay: signal transduction study, phosphorylated HSP27 level; format: cell-based; conditions: no RBC, un-opsonized RBC
Source text: (§4) The mechanism of action of KB-208 and KB-151 was investigated further to evaluate the effects on signal transduction. Many kinases were studied including Akt1/2/3 (T308), Akt1/2/3 (S473), CREB, EGF R1 eNOS, ERK1/2, Chk-2, c-Jun, Fgr, GSK-3a/p, GSK-3p, HSP27, p53 (S15), p53 (S46), p53 (S392), JNK 1/2/3, Lck, Lyn, MSK1/2, p70 S6 kinase (T389), p70 S6 kinase (T421/S424), PRAS40, p38a, PDGF RP, PLC-γ1, Src, PYK2, RSK1/2, RSK1/2/3, STAT2, STAT5a/b, WNK1, Yes, STAT1, STAT3 (Y705), STAT3 (S727), β-catenin, STAT6, and HSP60. […] It was then confirmed that KB-208 and KB-151 activate PP2A (in other words they increase its phosphatase activity) (FIG. 14). PP2A is a serine phosphatase that dephosphorylates HSP27. Deregulation of HSP27 also occurs in diseases other than immune cytopenias for example prostate cancer, colorectal cancer, and breast cancer.

PP2A = PP2A phosphatase activity; format: biochemical
Source text: as §4

[8] = Homo sapiens, Monocyte, 5 μM compound, screening of the 80 compounds, read-out: Average inhibition (% ± standard deviation)
[9] = Homo sapiens, Monocyte, 5 μM, anti-D-opsonized Rh(D+) red cells, read-out: Inhibition percentage

| Structure (SMILES) | Phagocytic index (PI) ([1]; 5 μM) | IC50 ([1]; Homo sapiens, Monocyte) [µM] | inhibition at 5 µM [1, 8] [%] | inhibition at 5 µM [1, 9] [%] | EC50 ([1]; Homo sapiens, Monocyte, unit inferred) [µM] | effect on IVIg dose-response curve (cooperation/synergy with IVIg) [1] | IC50 [1] [µM] | toxicity by LDH (PBMC, HEPG2, and HEK-293 [2]) | toxicity by MTT (PBMC, HEPG2, and HEK-293 [3]) | toxicity by apoptosis assay (Annexin V/PI) (PBMC, HEPG2, and HEK-293 [4]) | platelet (PLT) count (ITP mice model) | histopathology of liver, heart, spleen, lymph nodes, and kidney [5] | toxicity (blood biochemistry) [5] | binding of monocytes to anti-D opsonized RBCs and phagocytosis [6] | binding to Fcγ receptors (FcγRI, FcγRII, FcγRIII expression on monocytes) [7] | effect on HSP27 phosphorylation (HSP27) | PP2A phosphatase activity (PP2A) | EC50 ([1]; Homo sapiens, Monocyte) [µM] |
| --- | --- | --- | --- | --- | --- | --- | --- | --- | --- | --- | --- | --- | --- | --- | --- | --- | --- | --- |
| CCOC(=O)c1nn(-c2ccccc2)c(C#N)c1NC(=O)c1nn(CC)cc1Br [KB-151] | 17 | 2.71 ± 0.786 | 80 ± 3.68 | 80 | 8 ± 4 | no effect | 3 | low to no toxicity | low to no toxicity | low to no toxicity | significant increase | showed abnormalities nor any toxicity | Minimal toxicity | inhibit the binding and inhibit phagocytosis similarly to IVIg | independent of binding the three tested Fcγ receptors | dephosphorylate HSP27 | activate PP2A | – |
| COC(=O)CC1CCN(C(=O)c2cc(-c3cccs3)nn2-c2ccccc2)CC1 [KB-208] | 7 | 4.21 ± 1.24 | 81 ± 3.43 | 81 | – | no effect | 4 | low to no toxicity | low to no toxicity | low to no toxicity | – | – | – | inhibit the binding and inhibit phagocytosis similarly to IVIg | independent of binding the three tested Fcγ receptors | dephosphorylate HSP27 | activate PP2A | 5 ± 0.2 |
| O=C(Nc1nccs1)c1cnn(-c2ccccc2)c1-n1cccc1 [KB-210] | 11 | 22.1 | 69 ± 5.32 | 69 | – | – | – | – | – | – | – | – | – | – | – | – | – | > 10 |
| FC(F)(F)c1cc(-c2cccs2)nc(-n2nc(C(F)(F)F)c3c2CCC3)n1 [KB-211] | – | – | 33 ± 2.31 | – | – | – | – | – | – | – | – | – | – | – | – | – | – | – |
| CSc1cccc(NC(=O)c2cnn(C)c2-n2cccc2)c1 [KB-212] | 19 | – | 47 ± 9.67 | 47 | – | – | – | – | – | – | – | – | – | – | – | – | – | – |
| COc1ccc(-c2cc(C(=O)NCCc3c[nH]c4ccccc34)[nH]n2)cc1 [KB-213] | 13 | – | 64 ± 8.74 | 64 | – | – | – | – | – | – | – | – | – | – | – | – | – | – |

Reference: patent US20250382280A1, “PYRAZOLE DERIVATIVES FOR THE INHIBITION OF PHAGOCYTOSIS” (Canadian Blood Services, priority 2022, published 2025)
